Source: paper PMC10960464, “In vivo antimalarial effect of 1-hydroxy-5,6,7-trimethoxyxanthone isolated from Mammea siamensis T. Anders. flowers: pharmacokinetic and acute toxicity studies” (BMC Complementary Medicine and Therapies, 2024)
Values joined by “and” are separate entries in the source; they are usually repeats but may differ in a detail not shown here. Equal entries are not always repeated. “Also recorded” adds a separate entry of the source. Where two headings read alike, the source gives them in different places.

Tests used:
[1] = cited from earlier work
[2] = system: Plasmodium berghei ANKA strain; assay: In vivo 4-day suppressive test of P. berghei in ICR mice; parameters: species or system Plasmodium berghei (in ICR mice); conditions: mean ± SEM, n = 5
Experimental: Wild-type P. berghei ANKA strain was obtained from Thomas F. McCutchan (BEI Resources, NIAID, NIH). P. berghei-infected red blood cells were administered intraperitoneally to donor mice. When parasitemia levels reached 20–30%, blood was collected from the heart using a cardiac puncture procedure and placed in a vacutainer heparinized tube for injection into experimental animals.
A 4-day suppressive test was used to measure the schizonticidal activity of HTX in P. berghei-infected ICR mice. This test was performed according to a previous method, with some modifications. All mice were intraperitoneally injected with 1 × 10^7P. berghei ANKA-parasitized erythrocytes. Treatment was initiated four hours after the mice were infected with Plasmodium parasite on the first day (D0). […] For each experimental group, animals received daily intraperitoneal doses of 1, 3, or 10 mg/kg body weight of HTX. Mice received each substance daily for 4 days (D0-D3). On the fifth day (D4), parasitemia was determined using Giemsa-stained thin blood smears prepared from the tails of each mouse. Mice were euthanized at the end of the experiment by intraperitoneal injection of pentobarbital (200 mg/kg body weight).
Finally, the percentage suppression of parasite growth was calculated using the following equation: [drawing 1]

[3] = system: non-infected ICR mice; assay: Acute toxicity test, single intraperitoneal dose, 14-day observation, liver and kidney biochemical parameters; assay type: in vivo
Experimental: (§1) Acute HTX toxicity was determined in non-infected ICR mice aged 6–8 weeks and weighing 25–35 g using the Organization for Economic Cooperation and Development standard criteria. Fifteen mice were randomly divided into three groups (n = 5): untreated, negative control, and HTX-treated. All mice fasted for three hours prior to the experiment, and only drinking water was available. HTX was dissolved in 2% DMSO in NSS at 50 mg/kg body weight. In the treatment group, the first mouse was intraperitoneally given a single dose of 50 mg/kg body weight HTX, whereas in the negative control group, the first mouse was intraperitoneally given 200 µL of 2% DMSO in NSS. […] All mice were anaesthetized using pentobarbital (60 mg/kg body weight) by intraperitoneal injection. Blood samples were collected via cardiac puncture into heparinized tubes for biochemical analyses. The liver and kidney tissues were collected for histological examination. The mice were subsequently euthanized with an intraperitoneal injection of pentobarbital (200 mg/kg body weight).

[4] = system: liver and kidney tissues of ICR mice; assay: Histopathological examination of liver and kidney tissues (H&E) in the acute toxicity test; assay type: in vivo; conditions: 50 mg/kg single intraperitoneal dose
Experimental: as §1
[…]. In brief, all tissues were fixed in 10% buffered formalin, dehydrated using a gradient series of ethanol solutions, cleaned with xylene, and deposited in a paraffin mold. The paraffin blocks were then sectioned to a thickness of 5 μm using a rotary microtome, transferred to glass slides, and stained with hematoxylin and eosin (H&E) solution. […]

[5] = In vivo pharmacokinetic study after intraperitoneal administration, plasma LC-MS/MS; conditions: 5 mg/kg intraperitoneal, ICR mice, n = 5
Experimental: A pharmacokinetic study was conducted in non-infected ICR mice aged 6–8 weeks and weighing 25–35 g. Male ICR mice were randomly divided into two groups, each consisting of five mice. The first group is a negative control group and was injected with 150 µL of 2% DMSO in NSS, whereas the second group is a test group that was administered 5 mg/kg body weight of HTX compound intraperitoneally. Blood ([…]) was taken from the tail vein prior to administration of test compounds (0 h) and after at, 0.5, 1, 2, 3, 5, 8, 24, 48, and 72 h. Blood samples were collected in microtubes containing ethylenediaminetetraacetic acid (EDTA) and kept on ice until they were centrifuged at 3,000 × g for 10 min at 4 °C to allow the collection of plasma, which was stored at − 80 °C.
LC-MS/MS (Agilent 1290 infinity LC and Agilent 6490 triple quadrupole mass spectrometer) with an electrospray ionization (ESI, Agilent Technologies, USA) source was used to detect HTX in the plasma. Using a VertiSepTM USP C18 column (4.6 mm × 150 mm, particle size = 5 μm; Vertical Chromatography Co., ltd., Nonthaburi, Thailand), the separation was achieved. Acetonitrile:1 mM formic acid (7:3) was used as the mobile phase and was maintained at a constant flow rate of 0.5 mL/min. The injection volume was 1 µL, and column temperature was maintained at 30 °C. The following operating conditions for the MS were optimized: the source temperature was kept at 200 °C, the ion spray voltage for the positive mode was set at 3 KV, and the collision energy for HTX was set at 43 V. Nitrogen was used as the collision gas. The nebulizer and sheath gas flow rates were set to 14 and 11 L/min, respectively. The MassHunter qualitative analysis software was used to acquire the data (Agilent Technologies, Inc. Headquarters, CA, USA). HTX was quantified using the transitions for HTX at m/z 303→199 in the multiple reaction monitoring (MRM) mode.
By dissolving precisely weighed HTX and reference compounds in acetonitrile, stock HTX solutions were prepared. By diluting the stock solutions using a mixture of acetonitrile and water (2:8, v/v), a series of working solutions with concentrations between 7.81 and 1000 ng/mL were prepared. All solutions were stored at 4 °C. By spiking the blank plasma (50 µL) with 25 µL of standard working solutions, HTX calibration standards (0.78, 1.56, 3.13, 6.25, 12.5, 25.0, 50, 125, and 250 ng/mL) were prepared. The extraction solvent ethyl acetate (0.5 mL) was added to 75 µL of HTX-spiked plasma. The sample was vortexed for 1 min, followed by ultrasonic vibration for 15 min. Then, centrifugation for 10 min at 15,000 × g was done. The upper organic layer was transferred to a new microtube and dried via evaporation. The dried extract was reconstituted in 150 µL of 50% (v/v) acetonitrile in water. HTX recovery experiments were performed to confirm extraction efficacy. The effectiveness of liquid-liquid extraction was then determined by comparing the peak regions of the extracted HTX-spiked plasma with those of HTX spiked with blank plasma extract.
The plasma concentration-time profiles of HTX were determined by non-compartmental analysis with PKSolver 2.0 software. […] Additionally, the apparent volume of the central or plasma compartment, apparent volume of the peripheral compartment, transfer rate constant from the central compartment to the peripheral compartment, and transfer rate constant from the peripheral to central compartment were calculated using the two-compartment model.

[6] = system: Plasmodium falciparum K1 strain; conditions: P. falciparum K1 strain (chloroquine-resistant), in vitro; read-out: IC50, antiplasmodial activity; cited from earlier work
[7] = system: P. falciparum chloroquine-resistant (FCR3) strain; conditions: cited from earlier work
[8] = 3 mg/kg intraperitoneal daily D0-D3, read on D4, P. berghei-infected ICR mice
[9] = 1 mg/kg intraperitoneal daily D0-D3, read on D4, P. berghei-infected ICR mice
[10] = 10 mg/kg intraperitoneal daily D0-D3, read on D4, P. berghei-infected ICR mice

Structure (SMILES): C[C@H]1[C@@H](O)O[C@@H]2O[C@@]3(C)CC[C@H]4[C@H](C)CC[C@@H]1[C@@]24OO3 [dihydroartemisinin]
- elimination half-life [1]: 0.9 to 2 h

Structure (SMILES): C[C@H]1[C@H](OC(=O)CCC(=O)O)O[C@@H]2O[C@@]3(C)CC[C@H]4[C@H](C)CC[C@@H]1[C@@]24OO3 [Artesunate, reference compound]
- % parasitemia [2, 8]: 3.84 ± 0.54%
- elimination half-life ([1]; in vivo): 0.8 to 1.2 h

Structure (SMILES): CCN(CC)CCCC(C)Nc1ccnc2cc(Cl)ccc12 (stereo not drawn) [Chloroquine, reference compound]
- % parasitemia [2, 8]: 3.42 ± 0.35%
- % suppression [2, 8]: 92.07 ± 4.21 ^c, d, e %
- % suppression ([2]; 3 mg/kg intraperitoneal daily D0-D3, read on D4, P. berghei-infected ICR mice, listed as chloroquine): 92.07%

Structure (SMILES): COc1cc2c(=O)c3c(O)cccc3oc2c(OC)c1OC [HTX, 1-hydroxy-5,6,7-trimethoxyxanthone]
- % parasitemia [2, 9]: 21.91 ± 2.25%
- % suppression [2, 9]: 34.56% and 34.56 ± 4.91 ^a, b, d, e %
- % parasitemia [2, 8]: 17.79 ± 2.31%
- % suppression [2, 8]: 46.88% and 46.88 ± 3.96 ^a, b, c, e %
- % parasitemia [2, 10]: 8.62 ± 1.21%
- % suppression [2, 10]: 74.26% and 74.26 ± 3.32 ^a, b, c, d %
- mortality ([3]; 50 mg/kg single intraperitoneal dose, 24 h and following 14 days): No mortality; also recorded: all treated mice were alive; also recorded: did not cause mortality; also recorded: no behavioral changes or mortality
- effect on biochemical parameters of the liver and kidney functions ([3]; 50 mg/kg single intraperitoneal dose, versus untreated and negative controls): no significant alterations; also recorded: did not affect the liver and kidney functions
- median lethal dose (LD50) ([3]; intraperitoneal, single dose, 14 days): greater than 50 mg/kg body weight
- kidney histology (H&E) [4]: no histological changes; also recorded: normal; also recorded: did not present with lesions
- liver histology (H&E) [4]: no histological changes; also recorded: normal hepatocyte histology
- CL/F ([5]; plasma): 0.020 ± 0.002 (mg/kg)/(ng/mL)/h
- MRT0−∞ ([5]; plasma): 14.79 h and 14.795 ± 0.515 h
- Vz/F ([5]; plasma): 0.405 ± 0.014 (mg/kg)/(ng/mL)
- t1/2 (elimination half-life) ([5]; plasma): 13.881 ± 1.231 h
- K21 (rate constant, peripheral to central compartment) ([5]; two-compartment model): 0.156 ± 0.002 h⁻¹
- V1 (apparent volume, central or plasma compartment) ([5]; two-compartment model): 1.633 ± 0.003 (mg/kg)/(ng/mL)
- V2 (apparent volume, peripheral compartment) ([5]; two-compartment model): 19.808 ± 2.031 (mg/kg)/(ng/mL)
- MRT inf ([5]; male, ICR, mouse, plasma, ip, 5 mg/kg, plasma, read-out: MRT0−∞): 14.8 h
- half-life ([5]; male, ICR, mouse, plasma, ip, 5 mg/kg, plasma, read-out: t1/2 (elimination half-life) (converted)): 13.9 h
- Cmax ([5]; male, mouse, ip, plasma): 94 ± 3.21 ng/mL
- Tmax ([5]; male, mouse, ip, plasma): 0.5 ± 0.021 h
- AUC(0-inf) ([5]; male, mouse, ip, plasma, non-compartmental): 247 ± 5.33 ng·h/mL
- AUC(0-t) ([5]; male, mouse, ip, plasma, non-compartmental, read-out: AUC0 − 48 h): 226 ± 4.74 ng·h/mL
- IC50 [6]: 9.57 µM

Structure (SMILES): CC(C)(N)CNC(=O)C[C@H]1CC[C@]2(CC1)OO[C@]1(O2)C2CC3CC(C2)CC1C3 [arterolane]
- elimination half-life ([1]; in vivo): 2 to 4 h

Structure (SMILES): COc1c(O)cc2oc3cc(O)c(CC=C(C)C)c(O)c3c(=O)c2c1CC=C(C)C [Α-Mangostin]
- IC50 [7]: 0.2 µM
